Laboratory results published in patent US20260324639A1, “MICROBIOCIDAL PYRAZOLE DERIVATIVES” (SYNGENTA CROP PROTECTION AG, priority 2022, published 2026).

Legend:
Sclerotinia sclerotiorum = experiment: Sclerotinia sclerotiorum/liquid culture (cottony rot); type: cell-based; conditions: liquid culture (mycelia fragments), PDB, 24° C., growth inhibition photometric 3-4 days after application, read-out: control of Sclerotinia sclerotiorum compared to untreated control
Procedure: (§1) Mycelia fragments of a newly grown liquid culture of the fungus are directly mixed into nutrient broth (PDB potato dextrose broth). After placing a (DMSO) solution of test compound into a microtiter plate (96-well format) the nutrient broth containing the fungal material is added. The test plates are incubated at 24° C. and the inhibition of growth is determined photometrically 3-4 days after application.

[1] = tested on: Blumeria graminis f. sp. tritici; experiment: Blumeria graminis f. sp. tritici/wheat/leaf disc preventative (powdery mildew on wheat); type: in vivo; conditions: 200 ppm, wheat leaf segments cv. Kanzler, inoculated 1 day after application, assessed 6-8 days after application
Procedure: Wheat leaf segments cv. Kanzler are placed on agar in a multiwell plate (24-well format) and sprayed with the formulated test compound diluted in water. The leaf disks are inoculated by shaking powdery mildew infected plants above the test plates 1 day after application. The inoculated leaf disks are incubated at 20° C. and 60% rh under a light regime of 24 h darkness followed by 12 h light/12 h darkness in a climate chamber and the activity of a compound is assessed as percent disease control compared to untreated when an appropriate level of disease damage appears on untreated check leaf segments (6-8 days after application).

Fusarium culmorum = experiment: microbe, parasite or virus in culture; type: cell-based; conditions: read-out: control of Fusarium culmorum compared to untreated control
Procedure: as §1, with “Conidia” for “Mycelia fragments of a newly grown liquid culture”, “fungus from cryogenic storage” for “fungus”, “format),” for “format)”, “spores” for “material”

[2] = tested on: Puccinia recondita f. sp. tritici; experiment: Puccinia recondita f. sp. tritici/wheat/leaf disc preventative (brown rust); type: in vivo; conditions: 200 ppm, inoculated 1 day after application, wheat leaf segments cv. Kanzler, assessed 7-9 days after application
Procedure: (§2) Wheat leaf segments cv. Kanzler are placed on agar in multiwell plates (24-well format) and sprayed with the formulated test compound diluted in water. The leaf disks are inoculated with a spore suspension of the fungus 1 day after application. The inoculated leaf segments are incubated at 19° C. and 75% rh under a light regime of 12 h light/12 h darkness in a climate cabinet and the activity of a compound is assessed as percent disease control compared to untreated when an appropriate level of disease damage appears in untreated check leaf segments (7-9 days after application).

[3] = tested on: Mycosphaerella graminicola; experiment: Mycosphaerella graminicola (Septoria tritici)/liquid culture (Septoria blotch); type: cell-based; conditions: Zymoseptoria tritici, liquid culture, PDB, 24° C., growth inhibition photometric 4-5 days after application, read-out: control of Mycosphaerella graminicola compared to untreated control
Procedure: as §1, with “Conidia” for “Mycelia fragments of a newly grown liquid culture”, “fungus from cryogenic storage” for “fungus”, “format),” for “format)”, “spores” for “material”, “4-5” for “3-4”

Mycosphaerella arachidis = Mycosphaerella arachidis (Cercospora arachidicola)/liquid culture (early leaf spot); type: cell-based; conditions: liquid culture, PDB, 24° C., growth inhibition photometric 4-5 days after application, read-out: control of Mycosphaerella arachidis compared to untreated control
Procedure: as §1, with “Conidia” for “Mycelia fragments of a newly grown liquid culture”, “fungus from cryogenic storage” for “fungus”, “format),” for “format)”, “spores” for “material”, “4-5” for “3-4”

Pyrenophora teres = experiment: Pyrenophora teres/barley/leaf disc preventative (net blotch); type: in vivo; conditions: 200 ppm, barley leaf segments cv. Hasso, inoculated 2 days after application, assessed 5-7 days after application
Procedure: Barley leaf segments cv. Hasso are placed on agar in a multiwell plate (24-well format) and sprayed with the formulated test compound diluted in water. The leaf segments are inoculated with a spore suspension of the fungus 2 days after application. The inoculated leaf segments are incubated at 20° C. and 65% rh under a light regime of 12 h light/12 h darkness in a climate cabinet and the activity of a compound is assessed as disease control compared to untreated when an appropriate level of disease damage appears in untreated check leaf segments (5-7 days after application).

Botryotinia fuckeliana = Botryotinia fuckeliana (Botrytis cinerea)/liquid culture (gray mould); type: cell-based; conditions: liquid culture, Vogels broth, 24° C., growth inhibition photometric 3-4 days after application, read-out: control of Botryotinia fuckeliana compared to untreated control
Procedure: as §1, with “Conidia” for “Mycelia fragments of a newly grown liquid culture”, “fungus from cryogenic storage” for “fungus”, “(Vogels” for “(PDB potato dextrose”, “format),” for “format)”, “spores” for “material”

Alternaria solani = experiment: Alternaria solani/tomato/leaf disc (early blight); type: in vivo; conditions: 200 ppm; tomato leaf disks cv. Baby; inoculated 2 days after application; assessed 5-7 days after application
Procedure: Tomato leaf disks cv. Baby are placed on agar in multiwell plates (24-well format) and sprayed with the formulated test compound diluted in water. The leaf disks are inoculated with a spore suspension of the fungus 2 days after application. The inoculated leaf disks are incubated at 23° C./21° C. (day/night) and 80% rh under a light regime of 12/12 h (light/dark) in a climate cabinet and the activity of a compound is assessed as percent disease control compared to untreated when an appropriate level of disease damage appears on untreated check disk leaf disks (5-7 days after application).

Monographella nivalis = Monographella nivalis (Microdochium nivale)/liquid culture (foot rot cereals); type: cell-based; conditions: liquid culture, PDB, 24° C., growth inhibition photometric 4-5 days after application, read-out: control of Monographella nivalis compared to untreated control
Procedure: as §1, with “Conidia” for “Mycelia fragments of a newly grown liquid culture”, “fungus from cryogenic storage” for “fungus”, “format),” for “format)”, “spores” for “material”, “4-5” for “3-4”

[4] = tested on: Puccinia recondita f. sp. tritici; experiment: Puccinia recondita f. sp. tritici/wheat/leaf disc curative (brown rust); type: in vivo; conditions: 200 ppm, applied 1 day after inoculation, wheat leaf segments cv. Kanzler, assessed 6-8 days after application
Procedure: as §2, with “format).” for “format) and sprayed with the formulated test compound diluted in water.”, “segments” for “disks”, “fungus. Plates are stored in darkness at 19° C. and 75% rh. The formulated test compound diluted in water is applied” for “fungus”, “inoculation.” for “application.”, “The” for “The inoculated”, “(6-8” for “(7-9”

Phaeosphaeria nodorum = Phaeosphaeria nodorum (Septoria nodorum)/wheat/leaf disc preventative (glume blotch); type: in vivo; conditions: 200 ppm, wheat leaf segments cv. Kanzler, inoculated 2 days after application, assessed 5-7 days after application
Procedure: Wheat leaf segments cv. Kanzler are placed on agar in a multiwell plate (24-well format) and sprayed with the formulated test compound diluted in water. The leaf disks are inoculated with a spore suspension of the fungus 2 days after application. The inoculated test leaf disks are incubated at 20° C. and 75% rh under a light regime of 12 h light/12 h darkness in a climate cabinet and the activity of a compound is assessed as percent disease control compared to untreated when an appropriate level of disease damage appears in untreated check leaf disks (5-7 days after application).

Glomerella lagenarium = Glomerella lagenarium (Colletotrichum lagenarium)/liquid culture (anthracnose); type: cell-based; conditions: Colletotrichum orbiculare, liquid culture, PDB, 24° C., growth inhibition photometric 3-4 days after application, read-out: control of Glomerella lagenarium compared to untreated control
Procedure: as §1, with “Conidia” for “Mycelia fragments of a newly grown liquid culture”, “fungus from cryogenic storage” for “fungus”, “format),” for “format)”, “spores” for “material”, “measured” for “determined”

Gibberella zeae = type: in vivo, Gibberella zeae (Fusarium graminearum); conditions: 200 ppm; preventative; wheat spikelets cv. Monsun; inoculated one day after application; assessed 6-8 days after application

Row | Compound | inhibition of growth at 20 ppm (Sclerotinia sclerotiorum) | control of Blumeria graminis f. sp. tritici compared to untreated control [1] | inhibition of growth at 20 ppm (Fusarium culmorum) | control of Puccinia recondita f. sp. tritici compared to untreated control [2] | inhibition of growth at 20 ppm [3] | inhibition of growth at 20 ppm (Mycosphaerella arachidis) | control of Pyrenophora teres compared to untreated control (Pyrenophora teres) | inhibition of growth at 20 ppm (Botryotinia fuckeliana) | control of Alternaria solani compared to untreated control (Alternaria solani) | inhibition of growth at 20 ppm (Monographella nivalis) | control of Puccinia recondita f. sp. tritici compared to untreated control [4] | control of Phaeosphaeria nodorum compared to untreated control (Phaeosphaeria nodorum) | inhibition of growth at 20 ppm (Glomerella lagenarium) | control of Gibberella zeae compared to untreated control (Gibberella zeae)
1 | Cc1c([C@H]2CN(C(=O)c3nnn(-c4ccc(F)cc4F)n3)[C@@H](C)c3ccccc32)cnn1C (racemic) [Compound P-42, [2-(2,4-difluorophenyl)tetrazol-5-yl]-[rac-(1S,4S)-4-(1,5-dimethylpyrazol-4-yl)-1-methyl-3,4-dihydro-1H-isoquinolin-2-yl]methanone] | ≥ 80% | at least 80% | ≥ 80% | at least 80% | ≥ 80% | ≥ 80% | at least 80% | ≥ 80% | at least 80% | ≥ 80% | at least 80% | at least 80% | ≥ 80% | –
2 | C[C@H]1c2ccccc2[C@@H](c2cnn(C)c2Cl)CN1C(=O)c1cn(-c2ncc(F)cc2F)nn1 [Compound P-54, [(1S,4S)-4-(5-chloro-1-methyl-pyrazol-4-yl)-1-methyl-3,4-dihydro-1H-isoquinolin-2-yl]-[1-(3,5-difluoro-2-pyridyl)triazol-4-yl]methanone] | – | at least 80% | ≥ 80% | – | ≥ 80% | ≥ 80% | at least 80% | ≥ 80% | at least 80% | ≥ 80% | – | at least 80% | ≥ 80% | at least 80%
